Values of other authors, collected in patent US20150182535A1, “Antimicrobial Composition for the Treatment of Methicillin-resistant Staphylococcus aureus” (priority 2014, published 2015).

Tested on: humans

Row | Compound | toxicity (general statement in words) | safety relative to artemether | toxicity relative to chloroquinine
1 | C[C@H]1[C@H](N2CCS(=O)(=O)CC2)O[C@@H]2O[C@@]3(C)CC[C@H]4[C@H](C)CC[C@@H]1[C@@]24OO3 [Artemisone] | very low toxicity | – | –
2 | C[C@H]1[C@H](OC(=O)CCC(=O)O)O[C@@H]2O[C@@]3(C)CC[C@H]4[C@H](C)CC[C@@H]1[C@@]24OO3 [artesunate] | – | twice as safe | one-fiftieth
